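Method: 48-hour compound exposure of cells in 96-well plates, five concentrations, linear interpolation of endpoints. The concentration for 50% growth inhibition is given as GI50. TGI: concentration producing complete growth inhibition.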
Experiments:
Test in all cases: growth of human tumour cells (NCI), 48 h
HS 578T breast = tested on: HS 578T breast
SN12C renal = tested on: SN12C renal
HCC-2998 colon = tested on: HCC-2998 colon
TK-10 renal = tested on: TK-10 renal
IGROV1 ovarian = tested on: IGROV1 ovarian
A549 NSCLC = tested on: A549 NSCLC
NCI-H460 lung = tested on: NCI-H460 lung
SNB-75 CNS = tested on: SNB-75 CNS
A498 renal = tested on: A498 renal
MDA-MB-231 breast = tested on: MDA-MB-231 breast

## COc1ccccc1/C=C/C(=O)c1c(O)cc2occc2c1OC
HS 578T breast
  GI50: 38200 nM
  TGI: > 100000 nM
SN12C renal
  GI50: > 100000 nM
  TGI: > 100000 nM
HCC-2998 colon
  GI50: > 100000 nM
  TGI: > 100000 nM
TK-10 renal
  GI50: 21900 nM
  TGI: 62700 nM
IGROV1 ovarian
  GI50: 26000 nM
  TGI: > 100000 nM
A549 NSCLC
  GI50: > 100000 nM
  TGI: > 100000 nM
NCI-H460 lung
  GI50: > 100000 nM
  TGI: > 100000 nM
SNB-75 CNS
  GI50: 7490 nM
  TGI: 26300 nM
A498 renal
  GI50: 46000 nM
  TGI: > 100000 nM
MDA-MB-231 breast
  GI50: 33100 nM
  TGI: > 100000 nM

## CCNCCC1(CC)C(=O)NC(=O)NC1=O
HS 578T breast
  TGI: > 100000 nM
SN12C renal
  TGI: > 100000 nM
HCC-2998 colon
  GI50: > 100000 nM
  TGI: > 100000 nM
TK-10 renal
  TGI: > 100000 nM
IGROV1 ovarian
  TGI: > 100000 nM
A549 NSCLC
  TGI: > 100000 nM
NCI-H460 lung
  TGI: > 100000 nM
SNB-75 CNS
  TGI: > 100000 nM
A498 renal
  TGI: > 100000 nM
MDA-MB-231 breast
  TGI: > 100000 nM

## Cc1ccc2c(c1)C(C)Cc1c(ncnc1-n1cnc3cc(C)ccc31)N2C (stereo unspecified)
HS 578T breast
  GI50: 45.9 nM
  TGI: 23000 nM
SN12C renal
  GI50: 86 nM
  TGI: 16300 nM
HCC-2998 colon
  GI50: 42.2 nM
  TGI: 16300 nM
TK-10 renal
  GI50: 86.6 nM
  TGI: 21100 nM
IGROV1 ovarian
  GI50: 63.3 nM
  TGI: 15700 nM
A549 NSCLC
  GI50: 42.1 nM
  TGI: 13400 nM
NCI-H460 lung
  GI50: 34 nM
  TGI: 4390 nM
SNB-75 CNS
  GI50: 26.2 nM
  TGI: 13400 nM
A498 renal
  GI50: 29.7 nM
  TGI: 2000 nM
MDA-MB-231 breast
  GI50: 41.6 nM
  TGI: 13400 nM

## O=C1/C=C/[C@@H](O)[C@@H]2C[C@@H](O)C[C@H]2/C=C/CCC[C@H](CCc2ccc(C(F)(F)F)cc2)O1
HS 578T breast
  GI50: 60.2 nM
  TGI: > 27200 nM
SN12C renal
  GI50: 329 nM
  TGI: > 36500 nM
HCC-2998 colon
  GI50: 238 nM
  TGI: 3870 nM
TK-10 renal
  GI50: 449 nM
  TGI: 5470 nM
IGROV1 ovarian
  GI50: 309 nM
  TGI: 7010 nM
A549 NSCLC
  GI50: 305 nM
  TGI: > 100000 nM
NCI-H460 lung
  GI50: 388 nM
  TGI: > 55400 nM
SNB-75 CNS
  GI50: 54.4 nM
  TGI: 32500 nM
A498 renal
  GI50: 53.3 nM
  TGI: 277 nM
MDA-MB-231 breast
  GI50: 185 nM
  TGI: 368 nM

## CCN(CC)CC.CCOc1ccc(NC(=O)N=C=[N-])cc1.[CH-]1CCCCC1.[CH-]1CCCCC1.[CH-]1CCCCC1.[Cl-].[Sn+4]
HS 578T breast
  GI50: 56.5 nM
  TGI: 470 nM
SN12C renal
  GI50: 23.3 nM
  TGI: 63.4 nM
HCC-2998 colon
  GI50: 25.5 nM
  TGI: 66.9 nM
TK-10 renal
  GI50: 45.8 nM
  TGI: 116 nM
IGROV1 ovarian
  GI50: 34.2 nM
  TGI: 115 nM
A549 NSCLC
  GI50: 33.1 nM
  TGI: 107 nM
NCI-H460 lung
  GI50: 27.9 nM
  TGI: 575 nM
SNB-75 CNS
  GI50: 24.4 nM
  TGI: 108 nM
A498 renal
  GI50: 42.3 nM
  TGI: 95.9 nM
MDA-MB-231 breast
  GI50: 103 nM
  TGI: 250 nM

## COc1ccc(CCN2CCCN3C2=Nc2ccccc2S3(=O)=O)cc1
HS 578T breast
  GI50: 577 nM
  TGI: > 100000 nM
SN12C renal
  GI50: 707 nM
  TGI: > 100000 nM
HCC-2998 colon
  GI50: 1450 nM
  TGI: > 100000 nM
TK-10 renal
  GI50: 91000 nM
  TGI: > 100000 nM
IGROV1 ovarian
  GI50: 1510 nM
  TGI: > 100000 nM
A549 NSCLC
  GI50: 800 nM
  TGI: > 100000 nM
NCI-H460 lung
  GI50: 429 nM
  TGI: 44100 nM
SNB-75 CNS
  GI50: 296 nM
  TGI: > 100000 nM
A498 renal
  GI50: 195 nM
  TGI: 3200 nM
MDA-MB-231 breast
  GI50: 1680 nM
  TGI: > 100000 nM

## C=CC(=O)N1C/C(=C\c2ccccc2)C(=O)/C(=C/c2ccccc2)C1
HS 578T breast
  GI50: 2220 nM
  TGI: 14800 nM
SN12C renal
  TGI: 3440 nM
HCC-2998 colon
  TGI: 3670 nM
TK-10 renal
  TGI: 7000 nM
IGROV1 ovarian
  TGI: 4200 nM
A549 NSCLC
  TGI: 9000 nM
NCI-H460 lung
  TGI: 4470 nM
SNB-75 CNS
  TGI: 10000 nM
A498 renal
  TGI: 4030 nM
MDA-MB-231 breast
  TGI: 4550 nM

## COc1cc2c(F)nccc2cc1C(=O)N[C@@H](c1ccc(F)c(Cl)c1)[C@@H]1C[C@@H](O)CN1
HS 578T breast
  GI50: 71.5 nM
  TGI: 2410 nM
SN12C renal
  GI50: 8080 nM
  TGI: 22200 nM
HCC-2998 colon
  GI50: 875 nM
  TGI: 19500 nM
TK-10 renal
  GI50: 279 nM
  TGI: 14100 nM
IGROV1 ovarian
  GI50: 57.3 nM
  TGI: 11400 nM
A549 NSCLC
  GI50: 3140 nM
  TGI: 39600 nM
NCI-H460 lung
  GI50: 623 nM
  TGI: 15800 nM
SNB-75 CNS
  GI50: 74 nM
  TGI: 1510 nM
A498 renal
  GI50: 30.1 nM
  TGI: 1890 nM
MDA-MB-231 breast
  GI50: 11300 nM
  TGI: 25000 nM

## COC(=O)[C@H]1C(=O)[C@@]2(C)[C@H]([C@H](OC(=O)c3ccccc3)[C@]3(O)C[C@H](OC(=O)[C@H](O)[C@@H](NC(=O)c4ccc(F)cc4)c4ccccc4)C(C)=C1C3(C)C)[C@]1(OC(C)=O)CO[C@@H]1C[C@@H]2O
HS 578T breast
  GI50: 3.63 nM
  TGI: 23.1 nM
SN12C renal
  GI50: 10.4 nM
  TGI: > 25000 nM
HCC-2998 colon
  GI50: 9.09 nM
  TGI: > 9550 nM
TK-10 renal
  GI50: 67.6 nM
  TGI: 3910 nM
IGROV1 ovarian
  GI50: 4.78 nM
  TGI: > 7290 nM
A549 NSCLC
  GI50: 11.6 nM
  TGI: > 25000 nM
NCI-H460 lung
  GI50: 7.39 nM
  TGI: 3640 nM
SNB-75 CNS
  GI50: 2.73 nM
  TGI: 44.3 nM
A498 renal
  GI50: 31.5 nM
MDA-MB-231 breast
  GI50: 41.4 nM
  TGI: > 14400 nM

## C=C(C)[C@@H]1CC[C@]2(C(N)=O)CC[C@]3(C)[C@H](CC[C@@H]4[C@@]5(C)CC[C@H](O)C(C)(C)[C@@H]5CC[C@]43C)[C@@H]12
HS 578T breast
  GI50: 5740 nM
  TGI: > 100000 nM
SN12C renal
  GI50: 3000 nM
  TGI: 10600 nM
HCC-2998 colon
  GI50: 3960 nM
  TGI: 12900 nM
TK-10 renal
  GI50: 2790 nM
  TGI: 7590 nM
IGROV1 ovarian
  GI50: 3320 nM
  TGI: 14500 nM
A549 NSCLC
  GI50: 2110 nM
  TGI: 5390 nM
NCI-H460 lung
  GI50: 2120 nM
  TGI: 4840 nM
SNB-75 CNS
  GI50: 2740 nM
  TGI: 12100 nM
A498 renal
  GI50: 12200 nM
  TGI: 76500 nM
MDA-MB-231 breast
  GI50: 1970 nM
  TGI: 4600 nM

## COc1ccc(-c2nsc3c2NC(=O)CC3c2ccc(F)cc2)cc1 (stereo unspecified)
HS 578T breast
  GI50: 4480 nM
  TGI: > 73800 nM
SN12C renal
  GI50: > 23400 nM
  TGI: > 100000 nM
HCC-2998 colon
  GI50: > 21700 nM
  TGI: > 100000 nM
TK-10 renal
  GI50: 6880 nM
  TGI: > 100000 nM
IGROV1 ovarian
  GI50: 5440 nM
  TGI: > 100000 nM
A549 NSCLC
  GI50: 4580 nM
  TGI: > 100000 nM
NCI-H460 lung
  GI50: 3460 nM
  TGI: > 100000 nM
SNB-75 CNS
  GI50: 2350 nM
  TGI: 15700 nM
A498 renal
  GI50: 2370 nM
  TGI: > 100000 nM
MDA-MB-231 breast
  GI50: 6680 nM
  TGI: > 100000 nM

## COC(=O)[C@H]1[C@@H](O)[C@@]2(O)c3c(OC)cc(O[C@@H]4O[C@@H]([C@H](O)CO)CO[C@H]4OC)cc3O[C@@]2(c2ccc(OC)cc2)[C@@H]1c1ccccc1
HS 578T breast
  GI50: 5.96 nM
  TGI: 80.6 nM
SN12C renal
  GI50: 3.59 nM
  TGI: 50.1 nM
HCC-2998 colon
  GI50: 2.97 nM
  TGI: 16.4 nM
TK-10 renal
  GI50: 29.5 nM
  TGI: 108 nM
IGROV1 ovarian
  GI50: 5.85 nM
  TGI: 71.7 nM
A549 NSCLC
  GI50: 4.63 nM
  TGI: 45.7 nM
NCI-H460 lung
  GI50: 4 nM
  TGI: 69.5 nM
SNB-75 CNS
  GI50: 4 nM
  TGI: 32.1 nM
A498 renal
  GI50: 5.37 nM
  TGI: 14.1 nM
MDA-MB-231 breast
  GI50: 3.86 nM
  TGI: 23.7 nM

— PubChem BioAssay (NCI)
